Laboratory results taken from ChEMBL document CHEMBL1201862, “PubChem BioAssay data set” (2004).
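Cultured in 96-well plates, cells were exposed to test compound for 48 hours across five concentrations. At the GI50, growth is halved.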 Activity calls are given as the source filed them. Rule as the data show it: active = GI50 up to about 1.1 µM and inactive = higher.

Key:
Assay in all cases: NCI-60 cell line screen, 48 h
[1] = system: K562
[2] = system: OVCAR-5
[3] = system: A549
[4] = system: MOLT-4
[5] = system: UACC-257
[6] = system: NCI/ADR-RES
[7] = system: SK-MEL-5
[8] = system: MDA-N
[9] = system: SK-OV-3
[10] = system: NCI-H226
[11] = system: SK-MEL-28
[12] = system: KM12
[13] = system: NCI-H460
[14] = system: OVCAR-3
[15] = system: ACHN
[16] = system: SF-295
[17] = system: NCI-H522
[18] = system: SW-620
[19] = system: SNB-75
[20] = system: Malme-3M

| SMILES | GI50 [1] | GI50 [2] | GI50 [3] | GI50 [4] | GI50 [5] | GI50 [6] | GI50 [7] | GI50 [8] | GI50 [9] | GI50 [10] | GI50 [11] | GI50 [12] | GI50 [13] | GI50 [14] | GI50 [15] | GI50 [16] | GI50 [17] | GI50 [18] | GI50 [19] | GI50 [20] |
| --- | --- | --- | --- | --- | --- | --- | --- | --- | --- | --- | --- | --- | --- | --- | --- | --- | --- | --- | --- | --- |
| CCOC(=O)c1c(C)[n+]([O-])c2cc(Cl)c(Cl)cc2[n+]1[O-] | 31.4 µM (inactive) | 43.6 µM (inactive) | 14.6 µM (inactive) | 16.2 µM (inactive) | 16.9 µM (inactive) | 23.8 µM (inactive) | 16.7 µM (inactive) | 31 µM (inactive) | 26.7 µM (inactive) | 12 µM (inactive) | 29.4 µM (inactive) | 7.89 µM (inactive) | 16.3 µM (inactive) | 15.6 µM (inactive) | 29.3 µM (inactive) | 29.4 µM (inactive) |  |  |  |  |
| Cc1n[nH]c(=O)n1/N=C/c1ccc(F)cc1 | > 100 µM (inactive) | > 100 µM (inactive) | > 100 µM (inactive) | > 100 µM (inactive) | > 100 µM (inactive) | > 100 µM (inactive) |  | > 100 µM (inactive) | > 100 µM (inactive) |  | > 100 µM (inactive) | > 100 µM (inactive) | > 100 µM (inactive) | > 100 µM (inactive) | > 100 µM (inactive) | > 100 µM (inactive) | > 100 µM (inactive) | > 100 µM (inactive) | 65.2 µM (inactive) |  |
| CC1CC[C@@H](C(C)C)[C@H](Oc2nnc(C3OC(CO)C(O)C3O)o2)C1 (some centres not stated) | > 100 µM (inactive) | > 100 µM (inactive) | > 100 µM (inactive) | > 100 µM (inactive) | > 100 µM (inactive) | > 100 µM (inactive) | > 100 µM (inactive) | > 100 µM (inactive) | > 100 µM (inactive) | > 100 µM (inactive) |  | > 100 µM (inactive) | > 100 µM (inactive) | > 100 µM (inactive) | > 100 µM (inactive) | > 100 µM (inactive) |  | > 100 µM (inactive) | > 100 µM (inactive) | > 100 µM (inactive) |
| COC(=O)C(=O)c1cc2ccccc2n1S(=O)(=O)c1ccccc1 | > 100 µM (inactive) | > 100 µM (inactive) | > 100 µM (inactive) | > 100 µM (inactive) | > 100 µM (inactive) | > 100 µM (inactive) | > 100 µM (inactive) | > 100 µM (inactive) | > 100 µM (inactive) |  | > 100 µM (inactive) | > 100 µM (inactive) | > 100 µM (inactive) | > 100 µM (inactive) | > 100 µM (inactive) | > 100 µM (inactive) | > 100 µM (inactive) | > 100 µM (inactive) | 84.5 µM (inactive) | > 100 µM (inactive) |
| CSC1=N/C(=C\c2ccc(C)cc2)C(=O)N1 |  | > 100 µM (inactive) | > 100 µM (inactive) | 81.5 µM (inactive) | > 100 µM (inactive) | > 100 µM (inactive) |  | > 100 µM (inactive) | > 100 µM (inactive) | > 100 µM (inactive) | > 100 µM (inactive) | > 100 µM (inactive) |  | > 100 µM (inactive) | > 100 µM (inactive) | 65 µM (inactive) | 34.1 µM (inactive) | > 100 µM (inactive) | 47.4 µM (inactive) | > 100 µM (inactive) |
| CCOC(=O)CCc1c(C)nc2c(C)c3c([nH]c4ccc(Cl)cc43)c(C)c2c1O |  | 0.843 µM (active) | 4.51 µM (inactive) | 6.01 µM (inactive) | 6 µM (inactive) | 17.3 µM (inactive) | 6.12 µM (inactive) | 10.7 µM (inactive) |  | 17.1 µM (inactive) | 14.1 µM (inactive) | 11.7 µM (inactive) | 2.15 µM (inactive) |  | 12.1 µM (inactive) | 5.55 µM (inactive) | 6.81 µM (inactive) | 22.4 µM (inactive) | 4.37 µM (inactive) | 11.3 µM (inactive) |
| COC(=O)c1c(O)ccc2c1c1c(n2Cc2ccccc2OC)C(=O)c2ccccc2C1 | 70.5 µM (inactive) |  | 49.1 µM (inactive) | 48.3 µM (inactive) | 34.7 µM (inactive) | 29.3 µM (inactive) | 55.6 µM (inactive) | 77.1 µM (inactive) | 78.5 µM (inactive) | 70.3 µM (inactive) | > 100 µM (inactive) | 93.5 µM (inactive) | 29 µM (inactive) | 88.7 µM (inactive) |  |  |  | 81.1 µM (inactive) | 61.9 µM (inactive) | > 100 µM (inactive) |
| COc1ccc(C(=O)/C=C/c2ccc(OCCCCCCCCCCOc3ccc(/C=C/C(=O)c4ccc(OC)c(OC)c4)cc3)cc2)c(OC)c1 | > 100 µM (inactive) | > 100 µM (inactive) | > 100 µM (inactive) | > 100 µM (inactive) | > 100 µM (inactive) | > 100 µM (inactive) | > 100 µM (inactive) | > 100 µM (inactive) | > 100 µM (inactive) | > 100 µM (inactive) | > 100 µM (inactive) | > 100 µM (inactive) | > 100 µM (inactive) |  | > 100 µM (inactive) | > 100 µM (inactive) |  | > 100 µM (inactive) | > 100 µM (inactive) |  |
| CN1CCc2cc3c(c4c2C1C(O)c1ccccc1-4)OCO3 (configuration not stated) | 4.57 µM (inactive) | 8.24 µM (inactive) | 3.89 µM (inactive) | 2.98 µM (inactive) | 7.19 µM (inactive) | 6.47 µM (inactive) | 7.98 µM (inactive) | 5.08 µM (inactive) | 21.4 µM (inactive) |  | 20.2 µM (inactive) | 7.52 µM (inactive) | 3.33 µM (inactive) | 14.4 µM (inactive) | 6.05 µM (inactive) | 5.69 µM (inactive) | 2.93 µM (inactive) | 7.53 µM (inactive) | 12.6 µM (inactive) | 8 µM (inactive) |
| CSC(SC)=C(C#N)C(=O)Nc1ccc(Cl)cc1 | 25.9 µM (inactive) | > 100 µM (inactive) | 31.3 µM (inactive) | 27.7 µM (inactive) | > 100 µM (inactive) | 44.4 µM (inactive) | 51.6 µM (inactive) | 74.6 µM (inactive) | > 100 µM (inactive) | 23.6 µM (inactive) | > 100 µM (inactive) | 68.2 µM (inactive) | > 100 µM (inactive) | > 100 µM (inactive) |  |  |  | 44.1 µM (inactive) | 95.3 µM (inactive) | 27.1 µM (inactive) |
| Cc1ccc2c(c1)Sc1ccc(/N=N/N(C)C)cc1N2C |  | > 100 µM (inactive) | > 100 µM (inactive) | 57.7 µM (inactive) |  | > 100 µM (inactive) | 96.2 µM (inactive) | > 100 µM (inactive) | > 100 µM (inactive) | > 100 µM (inactive) | > 100 µM (inactive) | 48.8 µM (inactive) | 54.7 µM (inactive) | 53.2 µM (inactive) | > 100 µM (inactive) | > 100 µM (inactive) | > 100 µM (inactive) | > 100 µM (inactive) | > 100 µM (inactive) | > 100 µM (inactive) |
| N#Cc1c(-c2cccc(Br)c2)cc(-c2ccc(Cl)cc2)nc1N | 25.6 µM (inactive) | 25.5 µM (inactive) | 21 µM (inactive) | 15.8 µM (inactive) | 17.3 µM (inactive) | 22.2 µM (inactive) | 15.2 µM (inactive) | 20.5 µM (inactive) | 16.8 µM (inactive) | 17.5 µM (inactive) |  | 20.9 µM (inactive) | 21.2 µM (inactive) | 25.4 µM (inactive) | 21.8 µM (inactive) | 16.6 µM (inactive) | 14.1 µM (inactive) | 18.2 µM (inactive) |  | 23.7 µM (inactive) |
| Fc1ccc(Oc2nc3ccc(C(F)(F)F)cc3nc2-c2ccccc2)cc1 | > 10 µM (inactive) | > 100 µM (inactive) | 36.6 µM (inactive) | 46 µM (inactive) | 47.2 µM (inactive) | > 100 µM (inactive) | 68.1 µM (inactive) | 99.5 µM (inactive) | 81.5 µM (inactive) |  |  | > 100 µM (inactive) | 66.2 µM (inactive) | > 100 µM (inactive) | 44.8 µM (inactive) | 37.7 µM (inactive) | > 100 µM (inactive) | > 10 µM (inactive) | 27.9 µM (inactive) | 38 µM (inactive) |
| Cc1cc(-c2nc3cccc(F)c3s2)ccc1N | > 56.6 µM (inactive) |  | > 52 µM (inactive) | 42.9 µM (inactive) | > 68.1 µM (inactive) | > 62.2 µM (inactive) | > 100 µM (inactive) | > 60.3 µM (inactive) | > 100 µM (inactive) | 22.1 µM (inactive) | > 100 µM (inactive) | > 57.1 µM (inactive) | > 20.4 µM (inactive) | > 66.5 µM (inactive) | > 74.1 µM (inactive) | > 65 µM (inactive) | > 100 µM (inactive) | > 87.9 µM (inactive) | > 51.4 µM (inactive) | > 100 µM (inactive) |
| Nc1ccc(-c2nc3ccc(F)cc3s2)cc1Cl | > 100 µM (inactive) |  | > 100 µM (inactive) | > 20.4 µM (inactive) | > 100 µM (inactive) | > 100 µM (inactive) | > 100 µM (inactive) | > 100 µM (inactive) | > 100 µM (inactive) | 14.1 µM (inactive) | > 100 µM (inactive) | > 100 µM (inactive) |  | 0.126 µM (active) | > 100 µM (inactive) | > 47.1 µM (inactive) | > 70.5 µM (inactive) | > 100 µM (inactive) | 37 µM (inactive) | > 100 µM (inactive) |
| CC[C@](O)(C(=O)O)c1cc2n(c(=O)c1CO)Cc1cc3ccccc3nc1-2 |  | 0.0566 µM (active) | 0.0261 µM (active) | 0.0257 µM (active) |  | 0.0254 µM (active) | 0.0333 µM (active) | 0.0373 µM (active) | 0.0372 µM (active) |  |  |  | 0.025 µM (active) |  | 0.0025 µM (active) | 0.025 µM (active) | 0.0306 µM (active) |  | 0.0333 µM (active) | 0.0975 µM (active) |
